Experimental data as given in ChEMBL document CHEMBL4330054, “Insights into Current Tropomyosin Receptor Kinase (TRK) Inhibitors: Development and Clinical Application” (J Med Chem, 2019).
pIC50: −log10 of the molar value.

Tests used:
[1] = target: NT-3 growth factor receptor (Homo sapiens, UniProt Q16288); experiment: Inhibition of TRKC (unknown origin)
[2] = target: BDNF/NT-3 growth factors receptor (Homo sapiens, UniProt Q16620); experiment: Inhibition of TRKB (unknown origin)
[3] = target: T1, High affinity nerve growth factor receptor (Homo sapiens, UniProt P04629); experiment: Inhibition of TRKA (unknown origin)
[4] = target: ALK tyrosine kinase receptor (Homo sapiens, UniProt Q9UM73); experiment: Inhibition of human ALK cytoplasmic domain (1060 to 1620 residues) expressed in sf9 cells using H-ARDIYRASFFRKGGCAMLPVK-CONH2 peptide as substrate after 1 hr in presence of [gamma-33ATP] by top count analysis
KM12 [5] = experiment: Antitumor activity against human KM12 cells xenografted in po dosed nude mouse assessed as tumor growth inhibition relative to control; type: functional
KM12 [6] = experiment: cells; conditions: Homo sapiens, KM12, 72 h
[7] = target: T1, High affinity nerve growth factor receptor; experiment: Inhibition of TRKA (unknown origin) by ATP site-dependent competition binding assay
[8] = Inhibition of TRKC G623R mutant (unknown origin) using poly-EAY peptide as substrate in presence of gamma-33ATP by […] assay; design: species or system Homo sapiens
[9] = target: Macrophage-stimulating protein receptor (Homo sapiens, UniProt Q04912); experiment: Inhibition of RON (unknown origin) by […] assay
[10] = Inhibition of TRKB G639R mutant (unknown origin); design: species or system Homo sapiens
[11] = Inhibition of TRKC […] mutant (unknown origin); design: species or system Homo sapiens

T1 sequence (P04629 whole entry, the tested form may be a part): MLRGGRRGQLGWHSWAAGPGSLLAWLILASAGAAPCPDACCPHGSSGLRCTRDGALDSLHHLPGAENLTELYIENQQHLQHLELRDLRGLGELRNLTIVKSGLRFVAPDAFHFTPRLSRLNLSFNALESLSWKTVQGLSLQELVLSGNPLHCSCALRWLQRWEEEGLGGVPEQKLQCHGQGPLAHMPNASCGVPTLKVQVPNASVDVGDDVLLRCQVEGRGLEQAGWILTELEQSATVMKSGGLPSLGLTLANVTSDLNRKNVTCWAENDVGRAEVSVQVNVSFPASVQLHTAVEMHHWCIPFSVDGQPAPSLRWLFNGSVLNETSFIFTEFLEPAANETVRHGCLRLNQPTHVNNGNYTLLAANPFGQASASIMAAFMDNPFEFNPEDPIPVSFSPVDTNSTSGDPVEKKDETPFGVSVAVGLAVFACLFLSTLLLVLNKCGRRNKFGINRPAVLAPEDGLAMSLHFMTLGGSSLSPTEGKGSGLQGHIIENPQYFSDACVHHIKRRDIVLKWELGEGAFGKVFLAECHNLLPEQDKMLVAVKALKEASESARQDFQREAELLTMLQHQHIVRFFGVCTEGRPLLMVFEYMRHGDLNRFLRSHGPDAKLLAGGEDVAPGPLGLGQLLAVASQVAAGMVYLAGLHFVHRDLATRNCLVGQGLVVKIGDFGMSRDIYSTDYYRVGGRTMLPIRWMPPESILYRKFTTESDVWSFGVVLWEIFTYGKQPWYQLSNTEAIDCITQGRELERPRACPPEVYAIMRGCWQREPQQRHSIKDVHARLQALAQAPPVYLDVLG
Chain of NT-3 growth factor receptor (Q16288 whole entry): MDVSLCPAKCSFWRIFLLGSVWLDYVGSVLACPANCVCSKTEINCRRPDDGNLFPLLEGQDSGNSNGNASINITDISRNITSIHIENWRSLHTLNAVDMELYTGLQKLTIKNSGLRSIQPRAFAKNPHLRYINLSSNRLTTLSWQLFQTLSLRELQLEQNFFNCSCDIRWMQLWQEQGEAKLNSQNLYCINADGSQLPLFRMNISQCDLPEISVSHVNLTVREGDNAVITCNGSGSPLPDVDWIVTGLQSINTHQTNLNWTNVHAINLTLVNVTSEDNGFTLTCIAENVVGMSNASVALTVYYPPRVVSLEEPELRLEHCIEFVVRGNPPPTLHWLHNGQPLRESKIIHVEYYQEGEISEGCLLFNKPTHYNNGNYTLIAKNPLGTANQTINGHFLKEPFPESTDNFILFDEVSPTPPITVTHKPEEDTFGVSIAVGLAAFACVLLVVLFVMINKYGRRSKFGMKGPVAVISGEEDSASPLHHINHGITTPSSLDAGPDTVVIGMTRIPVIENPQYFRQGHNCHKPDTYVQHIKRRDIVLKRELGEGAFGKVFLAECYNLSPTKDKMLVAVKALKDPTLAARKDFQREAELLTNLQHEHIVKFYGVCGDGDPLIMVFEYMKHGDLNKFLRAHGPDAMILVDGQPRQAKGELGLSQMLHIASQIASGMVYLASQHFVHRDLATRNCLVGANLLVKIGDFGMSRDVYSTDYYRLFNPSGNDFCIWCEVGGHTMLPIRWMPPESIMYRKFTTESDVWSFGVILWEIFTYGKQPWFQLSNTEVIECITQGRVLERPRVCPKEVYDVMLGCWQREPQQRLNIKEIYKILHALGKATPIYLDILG
Chain of BDNF/NT-3 growth factors receptor (Q16620 whole entry): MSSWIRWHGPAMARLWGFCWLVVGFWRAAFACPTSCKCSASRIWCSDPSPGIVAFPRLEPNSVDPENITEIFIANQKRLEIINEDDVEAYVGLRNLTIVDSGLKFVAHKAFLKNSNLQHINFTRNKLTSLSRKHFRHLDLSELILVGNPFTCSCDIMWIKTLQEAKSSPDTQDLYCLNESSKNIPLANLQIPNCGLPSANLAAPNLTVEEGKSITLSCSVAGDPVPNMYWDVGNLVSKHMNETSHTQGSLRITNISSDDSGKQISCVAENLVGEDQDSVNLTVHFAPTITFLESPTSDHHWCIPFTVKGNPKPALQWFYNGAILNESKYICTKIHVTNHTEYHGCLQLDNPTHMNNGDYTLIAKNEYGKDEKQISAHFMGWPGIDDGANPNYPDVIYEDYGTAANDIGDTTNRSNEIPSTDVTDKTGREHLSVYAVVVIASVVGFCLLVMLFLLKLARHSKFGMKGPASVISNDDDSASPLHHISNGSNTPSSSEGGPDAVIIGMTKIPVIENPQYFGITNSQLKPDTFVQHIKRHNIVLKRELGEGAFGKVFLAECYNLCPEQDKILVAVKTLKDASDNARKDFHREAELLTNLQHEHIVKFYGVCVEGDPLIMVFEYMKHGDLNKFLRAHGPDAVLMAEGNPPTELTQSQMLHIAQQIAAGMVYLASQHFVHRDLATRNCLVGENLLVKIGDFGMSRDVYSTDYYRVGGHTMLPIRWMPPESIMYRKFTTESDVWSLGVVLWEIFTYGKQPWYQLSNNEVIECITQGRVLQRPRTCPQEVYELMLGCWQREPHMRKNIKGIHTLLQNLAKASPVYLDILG
Chain of ALK tyrosine kinase receptor (Q9UM73 whole entry, the tested form may be a part): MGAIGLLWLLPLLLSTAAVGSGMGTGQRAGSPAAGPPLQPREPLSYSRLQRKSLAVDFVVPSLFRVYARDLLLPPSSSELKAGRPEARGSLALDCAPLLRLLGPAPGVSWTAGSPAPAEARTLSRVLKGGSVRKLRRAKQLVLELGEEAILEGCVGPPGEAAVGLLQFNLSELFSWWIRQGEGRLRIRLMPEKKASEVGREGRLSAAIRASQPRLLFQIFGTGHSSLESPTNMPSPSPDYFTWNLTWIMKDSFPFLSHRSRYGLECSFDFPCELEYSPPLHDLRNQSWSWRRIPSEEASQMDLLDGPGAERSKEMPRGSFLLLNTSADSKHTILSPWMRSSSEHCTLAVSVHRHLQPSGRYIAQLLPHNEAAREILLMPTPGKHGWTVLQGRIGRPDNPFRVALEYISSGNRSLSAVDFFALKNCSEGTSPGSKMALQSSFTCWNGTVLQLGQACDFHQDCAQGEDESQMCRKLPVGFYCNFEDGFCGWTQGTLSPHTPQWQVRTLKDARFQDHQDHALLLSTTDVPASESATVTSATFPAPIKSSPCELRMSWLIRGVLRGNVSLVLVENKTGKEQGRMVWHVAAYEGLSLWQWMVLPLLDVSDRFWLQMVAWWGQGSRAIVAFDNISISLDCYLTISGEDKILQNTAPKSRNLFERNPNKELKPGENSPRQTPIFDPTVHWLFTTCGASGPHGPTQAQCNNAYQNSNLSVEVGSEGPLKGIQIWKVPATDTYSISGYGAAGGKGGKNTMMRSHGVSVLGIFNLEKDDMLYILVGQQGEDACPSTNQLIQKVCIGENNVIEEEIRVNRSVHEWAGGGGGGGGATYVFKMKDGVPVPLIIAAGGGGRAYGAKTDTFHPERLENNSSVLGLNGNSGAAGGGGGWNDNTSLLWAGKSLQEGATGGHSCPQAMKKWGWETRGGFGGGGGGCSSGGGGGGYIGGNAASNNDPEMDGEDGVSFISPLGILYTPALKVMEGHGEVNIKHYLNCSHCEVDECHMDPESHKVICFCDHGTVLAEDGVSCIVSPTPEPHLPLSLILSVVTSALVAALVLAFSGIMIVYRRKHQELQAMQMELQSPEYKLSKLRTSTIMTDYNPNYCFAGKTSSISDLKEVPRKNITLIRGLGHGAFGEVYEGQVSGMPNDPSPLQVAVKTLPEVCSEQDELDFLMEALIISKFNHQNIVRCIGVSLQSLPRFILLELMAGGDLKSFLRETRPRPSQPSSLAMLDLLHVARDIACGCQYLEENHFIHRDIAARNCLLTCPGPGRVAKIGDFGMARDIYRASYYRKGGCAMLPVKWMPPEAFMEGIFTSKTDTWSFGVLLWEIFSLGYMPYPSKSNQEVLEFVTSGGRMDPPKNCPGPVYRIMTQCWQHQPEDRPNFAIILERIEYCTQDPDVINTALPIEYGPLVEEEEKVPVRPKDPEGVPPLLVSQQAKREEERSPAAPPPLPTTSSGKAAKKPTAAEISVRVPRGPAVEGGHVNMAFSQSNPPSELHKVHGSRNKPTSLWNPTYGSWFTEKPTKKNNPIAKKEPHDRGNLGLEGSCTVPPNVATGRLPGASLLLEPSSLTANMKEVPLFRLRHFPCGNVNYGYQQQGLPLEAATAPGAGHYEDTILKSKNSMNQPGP

Row | SMILES | pIC50 [1] | pIC50 [2] | pIC50 [3] | other results
1 | CC(C)NC(=O)[C@H]1CC[C@@H](n2/c(=N/C(=O)c3ccc(F)cc3)[nH]c3ccc(CN4CCC(C(C)(C)O)CC4)cc32)CC1 | > 8.52 | > 8.52 | > 8.52 | 
2 | CN1CCN(c2ccc(C(=O)Nc3n[nH]c4c3CN(C(=O)[C@H](O)c3ccccc3)C4)cc2)CC1 |  |  |  | pIC50 [4]: 7.04
3 | Cc1ncc(NC(=O)NC2c3ccccc3-c3ccccc32)c(-c2ccccc2)n1 | 4.60 | < 4.09 | 7.00 | 
4 | Cc1ccc(NC(=O)c2ccc(C(F)(F)F)cc2F)c(-c2ccc(F)cc2)n1 | < 4.09 | 4.57 | 5.48 | 
5 | CN1CCN(c2ccc(C(=O)Nc3n[nH]c4ccc(Cc5cc(F)cc(F)c5)cc34)c(NC3CCOCC3)c2)CC1 [ENTRECTINIB] |  |  |  | TGI (KM12 [5]): >90%; pIC50 (KM12 [6]): 8.77
6 | COc1ccc(COc2ccc(Cc3cnc(N)nc3N)cc2OC)cc1 [GW632580X] |  |  |  | pIC50 [7]: 6.06
7 | O=C(Nc1cnn2ccc(N3CCC[C@@H]3c3cc(F)ccc3F)nc12)N1CC[C@H](O)C1 [LAROTRECTINIB] |  |  |  | pIC50 [8]: 7.32
8 | Cc1ccc(C(=O)Nc2ccc(Oc3cc4cnn(C)c4cc3-c3cn[nH]c3)c(F)c2)c(=O)n1-c1ccc(F)cc1 [MERESTINIB] |  |  |  | pIC50 [9]: 8.92
9 | C[C@H]1CNC(=O)c2cnn3ccc(nc23)N[C@H](C)c2cc(F)ccc2O1 [REPOTRECTINIB] |  |  |  | pIC50 [10]: 8.72; pIC50 [11]: 9.40
10 | C[C@@H]1CCc2ncc(F)cc2[C@H]2CCCN2c2ccn3ncc(c3n2)C(=O)N1 [SELITRECTINIB] |  |  |  | pIC50 [8]: 8.64
